What was measured:
DNA [1] = conditions: SpCas9 mutation relative to SEQ ID NO: 74; UniProtKB-Q99ZW2 entry; cited from earlier work
DNA [2] = assay: A to G editing on DNA by ecTadA mutant-nCas9 constructs (mammalian construct); assay type: cell-based
STAT3 SH2 domain = STAT3 SH2 domain (Homo sapiens, UniProt P40763); conditions: 37° C.; cited from earlier work
STAT3 [3] = assay: STAT3 reporter signal after STAT3 inhibitor or base editor treatment (FIGS. 3, 4, 5); assay type: cell-based
STAT3 [4] = assay: STAT3 reporter system (STAT3 signal); assay type: cell-based
[5] = test system: STAT3-dependent breast cancer cells; conditions: 10 μM; cited from earlier work

Chain of STAT3 SH2 domain (P40763 whole entry, the tested form may be a part): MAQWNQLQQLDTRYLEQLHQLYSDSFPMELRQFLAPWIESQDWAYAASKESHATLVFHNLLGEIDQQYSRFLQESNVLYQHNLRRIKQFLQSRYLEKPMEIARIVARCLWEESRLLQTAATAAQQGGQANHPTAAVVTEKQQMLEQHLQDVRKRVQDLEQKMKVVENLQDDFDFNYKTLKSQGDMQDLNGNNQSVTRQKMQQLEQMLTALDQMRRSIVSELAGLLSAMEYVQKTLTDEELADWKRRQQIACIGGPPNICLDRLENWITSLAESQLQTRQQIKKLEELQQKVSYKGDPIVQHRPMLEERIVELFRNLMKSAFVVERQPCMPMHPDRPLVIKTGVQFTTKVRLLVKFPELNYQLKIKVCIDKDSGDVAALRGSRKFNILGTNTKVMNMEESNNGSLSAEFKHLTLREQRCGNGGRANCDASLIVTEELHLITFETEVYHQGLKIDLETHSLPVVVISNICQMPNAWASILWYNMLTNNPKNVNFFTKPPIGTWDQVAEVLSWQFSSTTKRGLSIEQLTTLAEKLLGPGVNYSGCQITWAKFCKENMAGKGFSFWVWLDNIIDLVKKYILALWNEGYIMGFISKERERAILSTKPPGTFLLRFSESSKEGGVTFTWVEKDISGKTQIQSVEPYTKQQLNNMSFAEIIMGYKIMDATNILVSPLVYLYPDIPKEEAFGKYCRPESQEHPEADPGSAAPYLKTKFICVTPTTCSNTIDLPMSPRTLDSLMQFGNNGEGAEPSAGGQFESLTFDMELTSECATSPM

## H840A: SpCas9 mutation relative to canonical SpCas9, SEQ ID NO: 74
DNA [1]
  Function/Characteristic (as reported): Nickase mutant which cleaves the non-

## ecTadA(D108G)-XTEN-nCas9-NLS: ABE fusion protein, SEQ ID NO: 155
DNA [2]
  activity on DNA, A to G editing: ecTadA(D108G)-XTEN-nCas9-NLS: (mammalian construct, active on DNA, A to G

## O=[N+]([O-])c1ccc2c(c1)S(=O)(=O)C=C2 [Stattic, stattic]
STAT3 SH2 domain
  IC50: 5.1 µM
STAT3 [3]
  STAT3 signal over time: produces an effect that does not last over time
STAT3 [3]; different concentrations
  STAT3-driven signals: reduce STAT3-driven signals
STAT3 [4]; STAT3 inhibitor at different concentrations, FIG. 3
  inhibition of STAT3: inhibition of STAT3
STAT3 [4]; extension of the graph of FIG. 3, FIG. 5
  STAT3 signal over time: does not lead to a durable effect
[5]
  apoptosis: induce apoptosis

## 1099-1368 deletion: SpCas9 mutation relative to canonical SpCas9, SEQ ID NO: 74
DNA [1]
  Function/Characteristic (as reported): No nuclease activity

## ecTadA(D108V)-XTEN-nCas9-NLS: ABE fusion protein, SEQ ID NO: 156
DNA [2]
  activity on DNA, A to G editing: ecTadA(D108V)-XTEN-nCas9-NLS: (mammalian construct, active on DNA, A to G

## ecTadA(D108N)-XTEN-nCas9-NLS: ABE fusion protein, SEQ ID NO: 154
DNA [2]
  activity on DNA, A to G editing: ecTadA(D108N)-XTEN-nCas9-NLS: (mammalian construct, active on DNA, A to G

From patent US20230127008A1, “STAT3-TARGETED BASE EDITOR THERAPEUTICS FOR THE TREATMENT OF MELANOMA AND OTHER CANCERS” (The Broad Institute, Inc., priority 2020, published 2023)
